These are literature values, as cited in patent US7771744B2, “Bazedoxifene acetate formulations” (Wyeth LLC, priority 2005, dated 2010).

Structures are written as SMILES.

One series has as its system uterine response. The conditions noted are these: preclinical models of uterine stimulation.
The subject of series [1] is bone loss and cholesterol. Particulars: ovariectomized rat model of osteopenia.
In series [2] the test system is MCF-7 cell line (human breast cancer cell line).

Regarding `Cc1c(-c2ccc(O)cc2)n(Cc2ccc(OCCN3CCCCCC3)cc2)c2ccc(O)cc12` [bazedoxifene acetate, 1-[4-(2-azepan-1-yl-ethoxy)-benzyl]-2-(4-hydroxy-phenyl)-3-methyl-1H-indol-5-ol acetic acid], the “stimulation of uterine response” value with uterine response is “little or no stimulation of uterine response”. Also, in series [1], the “effect on bone loss and cholesterol” value is “estrogen agonist-like effect in preventing bone loss and reducing cholesterol”. The estrogen antagonist behaviour entry in series [2] is listed as “behaves as an estrogen antagonist”.

As to `Cc1c(-c2ccc(O)cc2)n(Cc2ccc(OCCN3CCCCCC3)cc2)c2ccc(O)cc12` [Form A, 1-[4-(2-azepan-1-yl-ethoxy)-benzyl]-2-(4-hydroxy-phenyl)-3-methyl-1H-indol-5-ol acetic acid], the “solubility in aqueous and organic solvent systems compared with form B” value is “higher solubility”.
